Experimental data reported in patent US7993638B2, “Cancer treatment combining lymphodepleting agent with CTLs and cytokines” (Janssen Pharmaceutica NV, priority 2006, dated 2011).

What was measured:
[1] = 0.07 mg/kg/day x 5 days monthly for 6 months, cited from earlier work
[2] = system: lymphocytes; details: cited from earlier work
[3] = subcutaneous versus IV; cited from earlier work
[4] = system: lymphocytes; details: […] s.c., 5 consecutive days (total 0.7 mg/kg), hairy cell leukemia patients; cited from earlier work
[5] = system: class I and melanoma-associated antigen expression; assay: Study 2: IHC stains of serial biopsy samples after 5-day course of IFN-alpha; format: in vivo, human; details: 10 MU/m^2 s.c., five day course; serial biopsies of a single patient
Text: Interferon-alpha (IFN-α) has a broad spectrum of immunomodulatory and antiproliferative effects in a variety of malignancies. It is believed that one mechanism of action of IFN-α is the upregulation of tumor antigen expression on melanoma cells. It has the ability to enhance the expression of immunologically important molecules on the surface of the tumor. These include the MHC antigens, accessory molecules, as well as tumor-associated antigens.^25-27 These immunomodulatory effects may improve the activity of the immune system, including both antibodies and lymphocytes, to recognize and attack tumor cells in vivo. […] It is believed that these two modalities of immunotherapy may act synergistically. […] The same 5-day course in clinical study was included in Study 3.

[6] = administered for 4 monthly courses

Nc1nc(Cl)nc2c1ncn2[C@H]1C[C@H](O)[C@@H](CO)O1 [cladribine, 2-chloro-2′deoxy-β-D-adenosine]
haematological toxicity ([1]; cumulative 2.1 mg/kg): no individual cases of significant thrombocytopenia, anemia granulocytopenia or generalized marrow suppression
patients with mild segmental herpes zoster ([1]; 27 patients in drug arm, one case on placebo): two
lymphopenia ([2]; MS patients): observed in all patients
time at which lymphocyte levels begin to recover [2, 6]: ≤ 6 months
time to lymphocyte nadir [2, 6]: 5 months
pharmacokinetic and therapeutic results of subcutaneous route [3]: entirely equivalent to the IV route
safety [4]: safe

IFN-α
upregulation of class I and melanoma-associated antigen expression (IHC) [5]: sufficient to upregulate both class I and melanoma-associated antigen expression
